The source of these data is a melting point compilation (Tetko et al.; mined from patent text by program, amines drawn as free bases though some values may be those of a salt).

Where only a bound is given, the exact number is not on record here.

The term melting point denotes the temperature, or range, at which the solid turns liquid. The compound `Clc1cnc(Oc2cccc(OCc3ccc(Cl)cc3Cl)c2)nc1` returned a melting point of 110 °C.

`CC1CCCN1CCCN1C(=C(C#N)C#N)N(CCCN2CCCC2C)c2ccccc21` (stereo unspecified): the melting point was 83 to 85 °C.

Compound `C=Cc1ccc(COc2ccc(CCl)cc2)cc1` showed a melting point of 110 to 112 °C.

Regarding `COCCNC(NC(=O)c1cccnc1)C(Cl)(Cl)Cl` (stereo unspecified), the melting point lay in the range of 75 to 77 °C.

`CCOC(=O)Cc1ccnc(C(SC)=C(C#N)C#N)c1`: the melting point was in the range of 148 to 152 °C.

Compound `Nc1cccc(-c2ccc(CCN3C4CCC3CC(N)C4)cc2)n1` (stereo unspecified) returned a melting point above 300 °C.

In turn, `CCCC(Cl)COC(=O)c1ccc(-c2ccc(-c3ccc(C(=O)OCC(Cl)CCC)cc3)cc2)cc1` (stereo unspecified) registered a melting point of 129 to 131 °C.

`CS(=O)(=O)CCCOc1ccc(/C=C/C(=O)O)c(Oc2ncc(C(F)(F)F)cc2Cl)c1`: the melting point was in the range of 202 to 203 °C.

On to `CCOC(=O)c1c(C=O)c2ccc3sc4ccccc4c3c2n1C`, for which the melting point was 145 to 147 °C.

On to `COC(=O)Nc1nc(C)c(C(=O)c2sc(NC(=O)OC)nc2C)s1`, for which the melting point was 188 to 189 °C.

`Cc1cccc2c1C1=C(CC2)NC(=O)CC1` displayed a melting point of 168 to 169 °C.

Turning to `Cc1cc(C)c(NC(=O)N(O)C(C)C)cc1C`, the melting point was 176 to 177 °C.

`CCNC(=O)c1cccc(-c2c(CC(=O)Nc3ccc(Cl)cc3C(F)(F)F)c(=O)oc3cc(Cl)c(C)cc23)c1` yielded a melting point of 220 to 222 °C.

On to `O=S(=O)(c1ccccc1)c1c[nH]c2ccncc12`, for which the melting point was 261 to 263 °C.

Turning to `CCOC(=O)c1cn2c(cc(OC)c3cc(OC)c(OC)cc32)n1`, the melting point fell in the range of 195 to 197 °C.

`O=c1c2[nH]c(C(C3CC3)C3CC3)nc2n(C2CC2)c(=O)n1C1CC1` registered a melting point of 197 to 198 °C.

`OC[C@@H]1O[C@H](n2c(NC3CC3)nc3c(Cl)c(Cl)c(Cl)cc32)[C@@H](O)[C@H]1O` showed a melting point of 208 to 209 °C.

`CCCCCCCCCCCCCCOc1ccc(C(=O)O)cc1OCCCCCCCCCCCCCC`: the melting point lay within 112 to 113 °C.

`O=c1cc(CBr)c2c(Cl)cc(Cl)cc2[nH]1` had a melting point of 299 to 301 °C.

Compound `CC1SC(=O)NN=C1c1ccc2c(c1)C(C)(C)C(=O)N2C` (stereo unspecified) showed a melting point of 125 °C.

In turn, `CC(=O)N(C)CC(C)c1ccncc1` (stereo unspecified) displayed a melting point of 83 to 88 °C.

`Nc1cc(C(=O)O)cc(OCc2ccc(Cl)cc2)c1C(=O)c1ccccc1` gave a melting point of 248 to 249 °C.

The compound `CCCCN(CCCC)C(=S)Nc1ccc(NNC=O)cc1` displayed a melting point of 139 to 141 °C.

Compound `NC(=O)C1CCc2[nH]c3ccc(Cl)c(Cl)c3c2C1` (stereo unspecified) yielded a melting point of 246 to 247 °C.

The compound `O=C(NC(=O)N1C(=O)Cc2ccccc21)C1CCCCC1` gave a melting point of 144 to 146 °C.

For `Nc1ncc(C(=O)CBr)cc1Cl`, the melting point came to 134 °C.

As for `CCc1cccc(C)c1CNc1nc(Br)cc(N)c1[N+](=O)[O-]`, the melting point lay within 126 to 128 °C.

Turning to `CCCc1c(C(=O)OC)[nH]c2c(C)ccc(Cl)c12`, the melting point lay in the range of 109 to 110 °C.

`CC(C)(Oc1ccc(OCc2ccc3nn(-c4ccc(C(F)(F)F)cc4)cc3c2)cc1)C(=O)O` had a melting point of 203 to 205 °C.

For `CC(=O)OC1CSC(Oc2cccc(C(C)=O)c2)C(OC(C)=O)C1OC(C)=O` (stereo unspecified), the melting point lay within 150 to 153 °C.

The compound `CCc1nc2c(C)c(C#N)c(C)nc2n1-c1ccc(CCNC(=O)NS(=O)(=O)c2ccc(C)cc2)cc1` displayed a melting point of 133 °C.

In the case of `O=C(CNc1c(C(=O)O)[nH]c2cc(Cl)cc(Cl)c12)c1cccc(F)c1`, the melting point was 270 to 280 °C.

`CCCCc1nc(SCCF)c(C(=O)OCC)n1Cc1ccc(-c2ccccc2C(=O)O)cc1` showed a melting point of 79 °C.

`CN(C)C(=O)C1(c2ccccc2)CCNCC1` showed a melting point of 95 °C.

For `COCC1(C)Oc2ccc(C#N)cc2C(n2ccccc2=O)C1O` (stereo unspecified), the melting point was in the range of 210 to 212 °C.

As to `CSC(C)(C)C(=O)N[C@@H](CS)C(=O)O`, the melting point was 110 to 112 °C.

For the compound `ONc1ccccc1F`, the melting point was in the range of 70 to 71 °C.

With `COC(=O)C(=Cc1cc(OC)cc(OC)c1)c1ccc(Oc2ccc(CBr)cc2)cc1`, the melting point was 79 to 81 °C.

`CC(C)(C)OC(=O)N1CCc2c(n(CC(=O)Nc3ccccc3)c3cc(Cl)c(Cl)cc23)CC1` displayed a melting point of 172 °C.

The compound `CC1(Sc2ccccc2)C(=O)C2CC=CC21` (stereo unspecified) had a melting point of 49 °C.

Regarding `CC(=O)OC1C(C)OC(n2c(Br)nc3cc(Cl)c(Cl)cc32)C1OC(C)=O` (stereo unspecified), the melting point was 145 to 148 °C.

`CCOCc1nc2c(N)nc3cc(-c4cccnc4)ccc3c2n1Cc1ccc(CN)cc1` gave a melting point of 211 to 214 °C.

`S=C1N=c2cc(Cl)c(Cl)cc2=N1` showed a melting point of 328 to 330 °C.

Consider `O=C(O)c1cccc(COc2ccccc2Cl)c1OCc1ccccc1Cl`, for which the melting point lay in the range of 96 to 98 °C.

Compound `Cn1c([N+](=O)[O-])cnc1C(N)=S` yielded a melting point of 148 to 150 °C.

`COC(=O)c1cc(-c2nc3ccccc3s2)cc2c1OC(c1ccccc1)(c1ccccc1)O2`: the melting point lay in the range of 184 to 185 °C.

`O=C(O)c1ccnc(-c2cccc3oc(Cc4cccc(C(F)(F)F)c4)cc23)c1` showed a melting point of 187 to 188 °C.

For `CCCC[C@]1(CC)CSc2cc(OC)c(OC)cc2[C@@H](c2ccccc2)N1`, the melting point is 64 to 66 °C.

The compound `COC(=O)c1ccc(-c2nc(-c3ccc(Cl)s3)cs2)cc1` showed a melting point of 171 to 172 °C.

`CCOC(=O)c1cnc(-c2ccc(Cl)cc2)s1` returned a melting point of 144 to 145 °C.

Take `O=C(Cc1cccc(C(F)(F)F)c1)Cn1cncn1`: the melting point was 85 to 87 °C.

Take `CC12CCc3ccccc3C1=NNC(=O)C2` (stereo unspecified): the melting point lay in the range of 189 to 190 °C.

`CCCCC(O)(c1cn(C(c2ccccc2)(c2ccccc2)c2ccccc2)cn1)c1cc(Cl)cc2c1OC(C)(C)OC2` (stereo unspecified) came in with a melting point of 124 °C.

Consider `O=c1[nH]c2ccc([C@H]3CC[C@H](NCCCc4ccccc4)CC3)cc2o1`, for which the melting point is 166 to 170 °C.

In turn, `CC(=O)Nc1ccc(C(C)=C(Cl)Cl)cc1[N+](=O)[O-]` displayed a melting point of 139 to 141 °C.

With `O=C1N(Cc2ncccc2C(F)F)c2ccccc2C12COc1cc3c(cc12)OCCO3` (stereo unspecified), the melting point lay within 181 to 182 °C.

On to `Cn1cc(-c2ccc(Oc3ccc(F)cc3F)cc2)nc1C(N)=O`, for which the melting point lay within 183 to 187 °C.

Take `CC(C)(C)c1cc(Cc2nc3ccccc3o2)cc(C(C)(C)C)c1O`: the melting point was 94 to 96 °C.

Consider `CCCn1nc2c(N)nc3ccccc3c2c1CC`, for which the melting point lay within 219 to 220 °C.

The compound `N=C1N(c2ccccc2)CCN1c1ccccc1[N+](=O)[O-]` had a melting point of 257 to 259 °C.

Compound `O=C(Nc1ccc(S(=O)(=O)c2ccccc2)cc1)C1(O)CCCC1` showed a melting point of 214 to 216 °C.

Consider `C[C@]1(COc2ccc(N3CCS(=O)CC3)cc2)Cn2cc([N+](=O)[O-])nc2O1`, for which the melting point fell in the range of 198 to 200 °C.

Compound `COc1ccccc1C1=C(C#N)C(c2cccc3nonc23)c2c[nH]nc2N1` (stereo unspecified) gave a melting point of 180 °C.

On to `CCC1(CC)C(=O)N(c2ccccc2)CC(C)(C)N1OC(C)c1ccccc1` (stereo unspecified), for which the melting point lay within 78 to 81 °C.

Regarding `CC(=O)Oc1c(C)cc2c(c1C)C(C)CN2C(C)=O` (stereo unspecified), the melting point lay within 128 to 130 °C.

In the case of `CCN(CC)CCNC(=O)c1cc(Cl)c(N)cc1OCC(=O)c1cccs1`, the melting point was in the range of 135 to 139 °C.

As to `O=C(O)Cc1ccc(NC(=O)C(COc2cccc(Cl)c2)NS(=O)(=O)c2ccc(I)cc2)cc1` (racemic), the melting point is 225 to 226 °C.

`COC(=O)c1cc2nc(-c3ccccc3)nn2cc1F` registered a melting point of 162 to 168 °C.

For `N#Cc1cnc2sc(-c3cccc(C=O)c3)cc2c1Nc1ccc2[nH]ccc2c1`, the melting point fell in the range of 221 to 223 °C.

As for `CC(O)c1cc2c(OCC(O)CN3CCC(c4ccc5ccccc5c4)CC3)cccc2o1` (stereo unspecified), the melting point lay within 143 to 144 °C.

The compound `CCCCCNc1ccc(OC2CCN(C(C)=O)CC2)cc1` gave a melting point of 69 to 71 °C.

`CCN1c2ncccc2C(N(C)C)=Nc2c(C)cc(C)nc21` had a melting point of 150 to 152 °C.

`Cc1[nH]c(-c2ccccc2)c(N)c1C(=O)c1ccccc1Cl` gave a melting point of 214 to 216 °C.

In the case of `O=[N+]([O-])c1ccc(C(Cl)=NNc2ccccc2)c(Cl)c1`, the melting point lay in the range of 124 to 126 °C.

Regarding `CCN1c2ncc(C=O)cc2C(=O)N(C)c2ccc(Cl)nc21`, the melting point was in the range of 199 to 201 °C.

As for `COC(=O)C1=C(C)Nc2ccccc2SC1c1cccc(Cl)c1Cl` (stereo unspecified), the melting point fell in the range of 190 to 191 °C.

As to `Cc1cncc(Oc2cccc(NC(=O)N3CCc4c(cnc5[nH]nc(Br)c45)C3)c2)n1`, the melting point is 221 to 223 °C.

The compound `Oc1ccc(F)cc1C=C(Cl)Cl` displayed a melting point of 55 to 57 °C.

For `CC(=CCc1c(C)nc(N)nc1Cl)c1cc(Cl)ccc1Cl`, the melting point lay within 97 to 100 °C.

`N#Cc1ccc(N(Cc2ccc(Br)cc2)n2cnnc2)cc1-c1ccc(OS(N)(=O)=O)cc1` returned a melting point of 122 to 123 °C.

`CN1CC(CO)CC2c3cccc4c3C(CN4)CC21` (stereo unspecified): the melting point lay in the range of 226 to 228 °C.

Take `CSc1ncc(F)c(N)n1`: the melting point was 114 to 115 °C.

On to `CSC(C#N)c1cccc(C(=O)c2ccccc2)c1N` (stereo unspecified), for which the melting point was in the range of 107 to 108 °C.

For `N#CNC(=Nc1ccncc1)NCC(O)COc1ccc(Cl)cc1` (stereo unspecified), the melting point fell in the range of 149 to 151 °C.

For the compound `CCCC=Cc1c(C)nc(C(C)C)c(CO)c1-c1ccc(F)cc1`, the melting point lay within 106 to 108 °C.

The compound `Fc1ccc(N2CCN(CCCOc3ccc(-n4cccn4)cc3)CC2)cc1` showed a melting point of 151 to 153 °C.

On to `CCCC(=O)c1cnc2c(OC)cccc2c1Nc1ccc(O)cc1C`, for which the melting point was in the range of 252 to 253 °C.

On to `O=S(c1[nH]c(-c2ccc(Cl)cc2)c(Br)c1Br)C(F)(F)F` (stereo unspecified), for which the melting point was 173 to 176 °C.

Take `Cc1c(C(N)=O)nnn1Cc1c(F)cccc1F`: the melting point fell in the range of 208 to 210 °C.

Compound `COC(=O)c1ccc(C)c(SC(=O)c2ccc3c(c2)C(C)(C)CCC3(C)C)c1` returned a melting point of 120 °C.

The compound `CC1(C)N(CC(N)=O)C(=O)CN1C(=O)CN1CCCC1=O` yielded a melting point of 225 to 227 °C.
